# The source made the active and inactive calls.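 Rule for the calls: active = fitted half-maximal concentration for a cytotoxic signal drop no higher than ten times the top valid dose tested; inconclusive = flat curve between -70 and -30 percent, or an unreliable fit; inactive = flat within 30 percent, signal rise, or potency beyond limit.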
# Experiment: HeLa cell cytotoxicity, dose response, cytotoxicity control, 24 h, cherry-picked samples (AID 504726);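 note: 0% = DMSO neutral controls and -100% = mitoxantrone positive controls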
# Details: HeLa viability, CellTiter-Glo ATP luminescence, 24 h; at 35 µM (top of the series)
row,Structure (SMILES),"activity change, negative = cytotoxicity"
1,NC(=O)C1=NOC(CNc2ncc(C(F)(F)F)cc2Cl)C1 (stereo not given),-1.63% (inactive)
2,CCCc1nc(NCc2ccccn2)c2nnn(Cc3ccccc3F)c2n1,-9.25% (inactive)
3,COc1ccc(-c2cc(C(F)(F)F)n3ncc(C(=O)N4CCCCC4c4cccnc4)c3n2)cc1 (stereo not given),-6.34% (inactive)
4,COc1ccc(C(=O)N/N=C/c2ccc(OC)c(COc3ccccc3)c2)cc1,-5.44% (inactive)
5,CSCCC(NC(=O)c1ccccc1Cl)C(=O)N1CCCC(C)C1 (stereo not given),-15.7% (inactive)
6,O=C(O)c1cccc(-n2cccc2/C=C/[N+](=O)[O-])c1,-0.655% (inactive)
7,O=C(OCc1ccccc1)N1C=CC2CC1c1c(Cl)cccc12 (stereo not given),-8.44% (inactive)
8,O=C(Cn1c2ccccc2c2nc3n(c(=O)c21)CCS3)Nc1ccccc1C(F)(F)F,-2.68% (inactive)
9,Cn1c(Cl)c(C(=O)Nc2ccc(Cl)cc2)c2ccccc21,-6.51% (inactive)
10,Nc1c(-c2ccccn2)cnn1-c1nc(-c2ccc(F)cc2)cs1,-5.27% (inactive)
11,CCCCn1c(N)c(N(CCOC)C(=O)c2cc(C)oc2C)c(=O)[nH]c1=O,-6.37% (inactive)
12,O=C(O)c1ccc2c(c1)[C@@H]1C=CC[C@@H]1[C@H](c1ccccn1)N2,-31.8% (inactive)
13,Nc1nc(C(F)(F)F)cc(=O)[nH]1,-5.29% (inactive)
14,CC(C)Cc1nc(SCC(=O)Nc2nnc(CC(C)C)s2)n[nH]1,-15% (inactive)
15,CCN(CC)C(=S)SC1CCCCN(C(=O)c2ccccc2)C1=O (stereo not given),-6.6% (inactive)
16,COc1ccc(-c2n[nH]c(=S)n2-c2ccc(C)cc2)cc1,4.29% (inactive)
17,COc1cc(NC(=O)c2ccc(CNc3c(N4CCCC4)c(=O)c3=O)cc2)cc(OC)c1OC,-7.17% (inactive)
18,O=C(O)CC1(CC(=O)NCc2ccncc2)CCCCC1,-9.28% (inactive)

row,Structure (SMILES),"activity change, negative = cytotoxicity"
1,COC(=O)Cn1c(=NC(=O)c2sc3ccccc3c2Cl)sc2cc(S(N)(=O)=O)ccc21,-2.51% (inactive)
2,Cc1ccc(S(=O)(=O)Nc2ccc(Br)cc2C(NCC(=O)O)c2ccccc2)cc1 (stereo not given),0.422% (inactive)
3,CC(C(=O)Nc1ccccc1)N1C(=O)c2ccccc2C1=O (stereo not given),-8.7% (inactive)
4,O=c1[nH]nc(CSCc2ccccc2Cl)[nH]1,-3.66% (inactive)
5,O=C1CN=C(Nc2ccccc2Cl)N1Cc1ccc2c(c1)OCO2,-6.04% (inactive)
6,CCn1c(=O)c(C(=O)NCCN2CCCCC2)c(O)c2ccccc21,1.6% (inactive)
7,Cc1ccc(C(=O)c2coc3ccc(O)c(Cl)c23)cc1,-2.67% (inactive)
8,c1ccc(-c2cn3nc(-c4ccccc4)c(-c4ccccc4)nc3n2)cc1,-12.6% (inactive)
9,Cc1nc2c(=O)[nH]c(=S)[nH]c2[nH]c1=O,1.86% (inactive)
10,Cc1ccccc1NC(=S)NC(C)CCc1ccccc1 (stereo not given),-9.6% (inactive)
11,O=C(O)C(Cc1ccccc1)N1C(=O)/C(=C/C=C/c2ccco2)SC1=S (stereo not given),-11.4% (inactive)
12,O=C(/C=N/NC(=O)c1ccc(Cl)cc1Cl)c1ccccc1,1.59% (inactive)
13,Cn1c(=O)c(NCCc2ccccc2)c2c3c(cccc31)C(=O)c1ccccc1-2,-38.4% (inactive)
14,CCNC(=O)COC(=O)c1cccc(Br)c1,-0.098% (inactive)
15,O=C(O)CCCN1C(=O)/C(=C/C=C/c2ccco2)SC1=S,-9.04% (inactive)
16,CCN(CC(=O)NCc1cccs1)C(=O)c1ccc(S(=O)(=O)Nc2ccccc2C)cc1,2.2% (inactive)
17,COc1ccc(NC(=O)Cc2nnc(SCC(=O)Nc3nccs3)n2C)cc1,5.46% (inactive)

# Reference: PubChem BioAssay AID504726 (Broad Institute, 2011)
